The text below walks through data of paper PMC6407204, “Oral administration of the cannabigerol derivative VCE-003.2 promotes subventricular zone neurogenesis and protects against mutant huntingtin-induced neurodegeneration” (Translational Neurodegeneration, 2019).

What is called IC50 is the point on the concentration scale where inhibition reaches its midpoint. A high value points to weaker potency in that assay.

The target in data set [1] is T1, CYP2B6 (Homo sapiens, UniProt P20813).
T1 construct: from tissue; host or cells: human liver microsomes
T1 sequence (P20813 whole entry): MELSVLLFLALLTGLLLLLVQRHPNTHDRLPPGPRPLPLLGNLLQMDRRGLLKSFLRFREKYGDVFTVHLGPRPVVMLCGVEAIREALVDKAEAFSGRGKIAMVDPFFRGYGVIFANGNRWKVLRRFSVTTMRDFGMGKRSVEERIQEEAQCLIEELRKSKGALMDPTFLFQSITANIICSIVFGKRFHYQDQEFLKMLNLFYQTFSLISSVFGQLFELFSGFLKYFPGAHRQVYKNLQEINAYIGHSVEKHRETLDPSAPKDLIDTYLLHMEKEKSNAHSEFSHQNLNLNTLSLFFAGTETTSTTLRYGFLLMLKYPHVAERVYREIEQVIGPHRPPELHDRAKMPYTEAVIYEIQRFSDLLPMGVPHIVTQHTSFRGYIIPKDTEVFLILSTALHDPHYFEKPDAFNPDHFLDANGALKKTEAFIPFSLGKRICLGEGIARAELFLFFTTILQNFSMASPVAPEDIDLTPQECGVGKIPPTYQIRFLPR
Put plainly: biochemical. Type of data set: in vitro ADME. The settings on record: Substrate = Bupropion, human liver microsomes. The method, then:
(§1) Supplementary file 40035_2019_148_MOESM2_ESM.pdf: Additional file 2: Cytochrome P450 Inhibition (IC50 Determination). CYP1A Inhibition. VCE-003.2 (0.1, 0.25, 1, 2.5, 10, 25 μM in DMSO; final DMSO concentration = 0.3%) was incubated with human liver microsomes (0.25 mg/mL) and NADPH (1 mM) in the presence of the probe substrate ethoxyresorufin (0.5 μM) for 5 min at 37 °C. The selective CYP1A inhibitor, alpha-naphthoflavone, was screened alongside the test compounds as a positive control. CYP2B6 Inhibition. VCE-003.2 (0.1, 0.25, 1, 2.5, 10, 25 μM in DMSO; final DMSO concentration = 0.3%) was incubated with human liver microsomes (0.1 mg/mL) and NADPH (1 mM) in the presence of the probe substrate bupropion (110 μM) for 5 min at 37 °C. The selective CYP2B6 inhibitor, ticlopidine, was screened alongside the test compounds as a positive control. CYP2C8 Inhibition. VCE-003.2 (0.1, 0.25, 1, 2.5, 10, 25 μM in DMSO; final DMSO concentration = 0.3%) was incubated with human liver microsomes (0.25 mg/mL) and NADPH (1 mM) in the presence of the probe substrate paclitaxel (7.5 μM) for 30 min at 37 °C. The selective CYP2C8 inhibitor, montelukast, was screened alongside the test compounds as a positive control. CYP2C9 Inhibition. VCE-003.2 (0.1, 0.25, 1, 2.5, 10, 25 μM in DMSO; final DMSO concentration = 0.3%) was incubated with human liver microsomes (1 mg/mL) and NADPH (1 mM) in the presence of the probe substrate tolbutamide (120 μM) for 60 min at 37 °C. The selective CYP2C9 inhibitor, sulphaphenazole, was screened alongside the test compounds as a positive control. CYP2C19 Inhibition. VCE-003.2 (0.1, 0.25, 1, 2.5, 10, 25 μM in DMSO; final DMSO concentration = 0.3%) was incubated with human liver microsomes (0.5 mg/mL) and NADPH (1 mM) in the presence of the probe substrate mephenytoin (25 μM) for 60 min at 37 °C. The selective CYP2C19 inhibitor, tranylcypromine, was screened alongside the test compounds as a positive control. CYP2D6 Inhibition. VCE-003.2 (0.1, 0.25, 1, 2.5, 10, 25 μM in DMSO; final DMSO concentration = 0.3%) was incubated with human liver microsomes (0.5 mg/mL) and NADPH (1 mM) in the presence of the probe substrate dextromethorphan (5 μM) for 5 min at 37 °C. […] CYP3A4 Inhibition. VCE-003.2 (0.1, 0.25, 1, 2.5, 10, 25 μM in DMSO; final DMSO concentration = 0.3%) was incubated with human liver microsomes (0.1 mg/mL) and NADPH (1 mM) in the presence of the probe substrate midazolam (2.5 μM) for 5 min at 37 °C. The selective CYP3A4 inhibitor, ketoconazole, was screened alongside the test compounds as a positive control. CYP3A4 Inhibition. VCE-003.2 (0.1, 0.25, 1, 2.5, 10, 25 μM in DMSO; final DMSO concentration = 0.3%) was incubated with human liver microsomes (0.5 mg/mL) and NADPH (1 mM) in the presence of the probe substrate testosterone (50 μM) for 5 min at 37 °C. The selective CYP3A4 inhibitor, ketoconazole, was screened alongside the test compounds as a positive control. For the CYP1A incubations, the reactions were terminated by methanol, and the formation of the metabolite, resorufin, was monitored by fluorescence (excitation wavelength = 535 nm, emission wavelength = 595 nm). For the CYP2B6, CYP2C9, CYP2C19, CYP2D6, and CYP3A4 incubations, the reactions were terminated by methanol. The samples were centrifuged, and the supernatants combined for the simultaneous analysis of 4-hydroxytolbutamide, 4-hydroxymephenytoin, dextrorphan, and 1-hydroxymidazolam by LC-MS/MS. Hydroxybupropion, 6α-hydroxypaclitaxel and 6ß-hydroxytestosterone were analyzed separately by LC-MS/MS. A decrease in the formation of the metabolites compared to vehicle control was used to calculate IC50 values. (PDF 323 kb)
On the technique in general: Liver microsomes are a subcellular fraction often used to study metabolism.

Data set [2] has as its target T2, CYP2C19 (Homo sapiens, UniProt P33261).
T2 construct: from tissue; host or cells: human liver microsomes
The experiment in a line: biochemical. Type of data set: in vitro ADME. The settings on record: Substrate = Mephenytoin, human liver microsomes. The method, then: as §1

Data set [3] concerns the target T3, CYP2C8 (Homo sapiens, UniProt P10632).
T3 construct: from tissue; host or cells: human liver microsomes
The experiment in a line: biochemical. Type of data set: in vitro ADME. The settings on record: Substrate = Paclitaxel, human liver microsomes. The method, then:
as §1

For data set [4], the target named is T4, CYP2C9 (Homo sapiens, UniProt P11712).
T4 construct: from tissue; host or cells: human liver microsomes
T4 sequence (P11712 whole entry): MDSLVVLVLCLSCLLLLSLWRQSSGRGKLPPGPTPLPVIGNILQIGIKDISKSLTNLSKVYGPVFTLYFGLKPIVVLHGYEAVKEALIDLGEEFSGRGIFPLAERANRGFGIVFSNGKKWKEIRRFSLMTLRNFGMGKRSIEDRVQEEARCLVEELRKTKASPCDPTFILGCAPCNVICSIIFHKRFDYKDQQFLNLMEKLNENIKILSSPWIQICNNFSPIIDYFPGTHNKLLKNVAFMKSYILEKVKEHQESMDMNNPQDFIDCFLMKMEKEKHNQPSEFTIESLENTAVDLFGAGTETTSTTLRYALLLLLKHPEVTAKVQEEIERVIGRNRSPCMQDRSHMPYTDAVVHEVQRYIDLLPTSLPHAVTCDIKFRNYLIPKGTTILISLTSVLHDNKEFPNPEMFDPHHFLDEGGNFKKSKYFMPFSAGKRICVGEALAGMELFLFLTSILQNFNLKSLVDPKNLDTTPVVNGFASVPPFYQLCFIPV
Put plainly: biochemical. Type of data set: in vitro ADME. To be noted: Substrate = Tolbutamide, human liver microsomes. The method, then:
as §1

The target in data set [5] is T5, CYP2D6 (Homo sapiens, UniProt P10635).
T5 construct: from tissue; host or cells: human liver microsomes
T5 sequence (P10635 whole entry): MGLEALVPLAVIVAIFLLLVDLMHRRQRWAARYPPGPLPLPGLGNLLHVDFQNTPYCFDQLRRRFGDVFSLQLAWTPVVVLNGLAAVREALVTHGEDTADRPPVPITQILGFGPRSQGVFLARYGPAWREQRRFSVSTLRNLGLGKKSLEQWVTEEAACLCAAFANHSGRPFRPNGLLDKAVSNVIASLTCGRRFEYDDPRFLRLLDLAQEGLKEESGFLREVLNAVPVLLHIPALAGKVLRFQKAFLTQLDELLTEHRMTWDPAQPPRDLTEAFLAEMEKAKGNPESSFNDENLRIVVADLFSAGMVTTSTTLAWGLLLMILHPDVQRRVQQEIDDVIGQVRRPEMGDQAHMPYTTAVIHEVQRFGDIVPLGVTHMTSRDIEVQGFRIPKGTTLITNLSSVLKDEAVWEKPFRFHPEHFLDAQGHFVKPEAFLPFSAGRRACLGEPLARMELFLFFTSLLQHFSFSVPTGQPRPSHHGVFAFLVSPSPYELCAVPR
The experiment in a line: biochemical. To be noted: Substrate = Dextromethorphan, human liver microsomes. Type of data set: in vitro ADME. The procedure:
as §1

The target in data set [6] is T6, CYP3A4 (Homo sapiens, UniProt P08684).
T6 construct: from tissue; host or cells: human liver microsomes
T6 sequence (P08684 whole entry): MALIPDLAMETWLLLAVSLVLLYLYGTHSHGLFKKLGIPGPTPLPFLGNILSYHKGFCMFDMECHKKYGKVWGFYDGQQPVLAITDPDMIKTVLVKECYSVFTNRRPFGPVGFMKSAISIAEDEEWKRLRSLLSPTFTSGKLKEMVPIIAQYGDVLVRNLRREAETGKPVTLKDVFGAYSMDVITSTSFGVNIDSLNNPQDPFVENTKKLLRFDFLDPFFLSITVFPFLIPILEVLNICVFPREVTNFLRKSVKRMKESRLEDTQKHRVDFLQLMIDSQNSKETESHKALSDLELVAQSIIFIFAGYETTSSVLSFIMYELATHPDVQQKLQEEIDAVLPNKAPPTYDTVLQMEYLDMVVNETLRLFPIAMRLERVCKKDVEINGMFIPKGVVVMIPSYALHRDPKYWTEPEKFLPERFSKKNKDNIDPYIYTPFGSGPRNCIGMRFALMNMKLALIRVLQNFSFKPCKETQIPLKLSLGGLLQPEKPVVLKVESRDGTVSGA
Put plainly: biochemical. Type of data set: in vitro ADME. The settings on record: human liver microsomes. The method, then: as §1

Data set [7] concerns C-reactive protein and pentraxins 2, 3. Put plainly: Plasma biomarkers, cytokine and adipokine proteome arrays. Type of data set: in vivo, C57BL/6 N mice. The settings on record: pooled plasma, oral treatment, htt94Q mice. The procedure: Plasma samples from wild-type and mutant huntingtin-expressing C57BL/6 N mice were pooled (n = 6 animals per group) and analyzed for cytokine and adipokine expression. The Proteome Profiler Mouse XL Cytokine Array and the Proteome Profiler Mouse Adipokine Array (R&D Systems) were used according to the manufacturer’s protocols to obtain protein expression profiles using 100 μl plasma samples. Spot density was determined using Quick Spots image analysis software (R&D Systems).
Supplementary file 40035_2019_148_MOESM5_ESM.pdf: Additional file 5: Effect of oral VCE-003.2 on plasmatic biomarkers. Plasma samples from the indicated groups of animals (n = 6) were pooled and subjected to mouse cytokine array (ARY028; R&D Systems) and mouse adipokine array (ARY013; R&D Systems) analysis. The relative expression of the indicated biomarkers is shown. (PDF 338 kb)

The test system of data set [8] is adipogenic. To be noted: compared with full PPARγ-agonists; cited from earlier work.
Data set [9] addresses hERG channel (Homo sapiens, UniProt Q12809). The experiment in a line: hERG channel inhibition, IonWorks HT electrophysiology in CHO-hERG cells. In general terms: The hERG channel carries a current that helps repolarise heart muscle cells.

Sequence of hERG channel (Q12809 whole entry): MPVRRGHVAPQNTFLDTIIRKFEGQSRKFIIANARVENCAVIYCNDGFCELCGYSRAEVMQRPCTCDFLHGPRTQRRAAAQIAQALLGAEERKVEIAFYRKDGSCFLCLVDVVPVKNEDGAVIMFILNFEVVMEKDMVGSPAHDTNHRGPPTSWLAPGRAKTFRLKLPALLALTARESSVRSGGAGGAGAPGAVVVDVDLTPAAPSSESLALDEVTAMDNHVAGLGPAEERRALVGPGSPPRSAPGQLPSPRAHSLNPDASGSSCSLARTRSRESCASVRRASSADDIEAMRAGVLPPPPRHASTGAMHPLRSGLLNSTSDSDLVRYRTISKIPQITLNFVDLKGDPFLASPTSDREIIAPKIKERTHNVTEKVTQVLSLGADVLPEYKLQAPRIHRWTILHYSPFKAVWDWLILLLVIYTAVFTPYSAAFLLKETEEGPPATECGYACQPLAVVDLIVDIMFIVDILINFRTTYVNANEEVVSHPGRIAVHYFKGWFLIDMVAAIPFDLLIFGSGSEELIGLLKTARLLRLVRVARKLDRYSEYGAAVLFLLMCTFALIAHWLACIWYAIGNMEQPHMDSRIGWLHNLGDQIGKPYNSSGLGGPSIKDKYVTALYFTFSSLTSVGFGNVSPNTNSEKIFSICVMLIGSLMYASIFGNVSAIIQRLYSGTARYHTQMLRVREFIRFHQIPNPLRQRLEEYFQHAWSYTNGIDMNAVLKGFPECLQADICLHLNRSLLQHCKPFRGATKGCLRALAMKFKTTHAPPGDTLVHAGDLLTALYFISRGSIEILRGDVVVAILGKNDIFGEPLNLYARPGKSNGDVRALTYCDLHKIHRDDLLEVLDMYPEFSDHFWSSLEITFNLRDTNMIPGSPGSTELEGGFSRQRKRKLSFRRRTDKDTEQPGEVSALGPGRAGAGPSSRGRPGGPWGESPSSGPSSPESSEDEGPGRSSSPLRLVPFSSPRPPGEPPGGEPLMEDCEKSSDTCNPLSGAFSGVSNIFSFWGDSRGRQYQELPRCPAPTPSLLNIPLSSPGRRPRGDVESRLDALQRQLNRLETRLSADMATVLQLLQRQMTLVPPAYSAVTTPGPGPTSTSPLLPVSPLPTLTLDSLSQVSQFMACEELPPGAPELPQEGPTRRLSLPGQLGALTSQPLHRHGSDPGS
T3 sequence (P10632 whole entry): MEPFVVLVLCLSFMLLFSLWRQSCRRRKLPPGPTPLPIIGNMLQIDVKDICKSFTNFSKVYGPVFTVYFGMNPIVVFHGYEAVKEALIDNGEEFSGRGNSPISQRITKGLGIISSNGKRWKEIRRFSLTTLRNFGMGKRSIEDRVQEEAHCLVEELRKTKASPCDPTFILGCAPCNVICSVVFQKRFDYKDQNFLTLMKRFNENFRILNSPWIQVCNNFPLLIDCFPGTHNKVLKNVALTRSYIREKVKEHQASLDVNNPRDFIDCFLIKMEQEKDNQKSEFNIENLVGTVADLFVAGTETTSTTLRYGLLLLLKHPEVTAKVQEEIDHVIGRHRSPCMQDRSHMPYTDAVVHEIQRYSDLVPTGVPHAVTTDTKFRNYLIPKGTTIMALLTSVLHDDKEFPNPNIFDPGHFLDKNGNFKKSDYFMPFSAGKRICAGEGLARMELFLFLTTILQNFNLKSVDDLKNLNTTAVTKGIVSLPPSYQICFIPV
T2 sequence (P33261 whole entry): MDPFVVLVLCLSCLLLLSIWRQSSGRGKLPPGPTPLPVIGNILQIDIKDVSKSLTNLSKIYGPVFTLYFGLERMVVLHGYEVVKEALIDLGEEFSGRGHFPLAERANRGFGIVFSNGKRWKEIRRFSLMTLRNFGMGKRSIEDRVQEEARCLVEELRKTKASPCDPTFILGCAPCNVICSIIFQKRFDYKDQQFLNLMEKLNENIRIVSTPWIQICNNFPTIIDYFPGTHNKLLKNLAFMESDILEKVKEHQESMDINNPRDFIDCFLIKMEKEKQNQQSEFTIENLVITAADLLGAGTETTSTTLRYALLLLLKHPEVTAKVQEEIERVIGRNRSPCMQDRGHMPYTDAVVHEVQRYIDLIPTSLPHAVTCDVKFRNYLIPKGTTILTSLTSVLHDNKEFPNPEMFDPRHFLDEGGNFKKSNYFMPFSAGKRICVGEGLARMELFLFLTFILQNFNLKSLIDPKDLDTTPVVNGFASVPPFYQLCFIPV

For `CCCCCC1=C(NCC)C(=O)C(CC=C(C)CCC=C(C)C)=C(O)C1=O` [VCE-003.2, 2-(3,7-dimethyl-octa-2,6-dienyl)-6-ethylamino-3-hydroxy-5-pentyl-(1,4) benzoquinone], the IC50 was greater than 25 µM in data set [1]; greater than 25 µM in data set [2]; 13 ± 2.4 µM in data set [3]; 15.7 ± 1.96 µM in [4]; greater than 25 µM in [5]; greater than 25 µM in data set [6] (Substrate = Midazolam). For the same compound, the IC50 in data set [6] (Substrate = Testosterone) and in data set [9] was greater than 25 µM throughout. Moreover, the “plasma neuroinflammation biomarkers increased by htt94Q (C-reactive protein, pentraxins 2, 3)” value in data set [7] was “reverted”. In addition, the adipogenic effect entry in [8] is on record as “less adipogenic”.
